Measured values taken from patent EP4588470A1, “PHARMACEUTICAL COMPOSITION COMPRISING CURCUMIN AND THE PREPARATION THEREOF” (priority 2024, dated 2025).

Experiments:
[1] = test system: human circulating tumor cells; test: drug sensitivity testing (CTC assay) on circulating tumor cells cultivated from patient blood; assay type: cell-based
Excerpt: Determination of the effect of a pharmaceutical composition according to the present invention, on human circulating tumor cells in blood of nine patients suffering from different types of carcinoma as given in the following Table IV. The composition of the pharmaceutical composition is the same as used in Example 4.
The cells from the collected blood were cultivated in a usual manner with an agent. The agent was either the pharmaceutical composition according to the present invention, or Resveratrol-ACTIF®, which is a combination preparation comprising resveratrol and at least one gingerol, that were added to the cell culture in a concentration of either 50% 100% and 200%.
The same EDTA blood sample used for the verification of the CTC burden was used for drug sensitivity testing.
After enrichment of mononuclear cells by density gradient centrifugation, CD45 depletion and erythrolysis the remaining cells were suspended in cell culture medium and incubated for 4 days with and without the tested compounds. Compounds were tested at three tissue culture doses (TCD), namely 50%, 100% and 200%.. […]
The same experiment was performed with human circulating tumor cells, prepared from a tumor patient by using Resveratrol-ACTIF® and the pharmaceutical composition according to the present invention. […] The results vary from patient to patient and therefore have to be determined individually. […]

[2] = in buffer at pH 7; cited from earlier work
[3] = several animal studies; cited from earlier work

Compound: N.N.O=C([O-])C1(C(=O)[O-])CCC1.[Pt+2] [Carboplatin]
- response of tumor cell-inhibition ([1]; patient 7, Figure 8, already with the 50% TCD (7,9 µg/ml)): maximal response has been reached

Compound: COc1cc(C=CC(=O)CC(=O)C=Cc2ccc(O)c(OC)c2)ccc1O [curcumin, 1,7-bis(4-hydroxy-3-methoxyphenyl)-1,6-heptadiene-3,5-dione]
- solubility in aqueous solution [2]: less than 0.03 M
- oral curcumin excreted in the faeces [3]: 90%

Compound: CCC(=O)C(CC(C)N(C)C)(c1ccccc1)c1ccccc1 (stereo not shown) [Methadon]
- antitumoral capacity among the tested chemotherapeutics [1]: highest antitumoral capacity
